Entries after “also recorded” stand apart in the source; their conditions may differ.
What was measured:
[1] = target: human CB2 receptor (Homo sapiens, UniProt P34972); test: [35S]GTPγS binding assay, CB2 receptor agonistic activity; type: biochemical; conditions: for Selective index (CB1/CB2): EC50 ratio of the CB1 to CB2; for Human CB2 receptor S/R ratio: EC50 value ratio of an (S)-enantiomer to the corresponding (R)-enantiomer; for EC50: Human CB2 receptor EC50, [35S]GTPγS binding, tested 1 × 10^−11 to 1 × 10^−4 M; for CB2 receptor agonist activity (in words): [35S]GTPγS binding
Chain of human CB2 receptor (P34972 whole entry): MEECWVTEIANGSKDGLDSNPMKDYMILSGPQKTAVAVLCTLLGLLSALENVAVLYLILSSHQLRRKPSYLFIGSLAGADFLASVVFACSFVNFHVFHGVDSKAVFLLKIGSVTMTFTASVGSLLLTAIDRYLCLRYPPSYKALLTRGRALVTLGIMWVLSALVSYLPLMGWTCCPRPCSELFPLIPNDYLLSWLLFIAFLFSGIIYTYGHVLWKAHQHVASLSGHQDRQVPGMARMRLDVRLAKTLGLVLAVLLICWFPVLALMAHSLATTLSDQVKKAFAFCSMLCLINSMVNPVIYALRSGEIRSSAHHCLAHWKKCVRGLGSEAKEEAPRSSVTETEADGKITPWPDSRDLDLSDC
Procedure: (§1) For the evaluation of CB1/CB2 cannabinoid receptor activity, [^35S]GTPγS binding assays were performed. These assays were performed at ADME and Tox. Research Institute, Sekisui Medical Co., Ltd. (Tokai-mura, Ibaraki, Japan).

[2] = target: human CB1 receptor (Homo sapiens, UniProt P21554); test: [35S]GTPγS binding assay, CB1 receptor agonistic activity; type: biochemical; conditions: for Human CB1 receptor S/R ratio: EC50 value ratio of an (S)-enantiomer to the corresponding (R)-enantiomer; for difference in the EC50 levels between the enantiomers to activate the CB1 receptor: (S)-enantiomer lower than (R)-enantiomer; for CB1 receptor agonist activity (in words): [35S]GTPγS binding, maximum tested concentration 1.0 × 10^−4 M
Chain of human CB1 receptor (P21554 whole entry): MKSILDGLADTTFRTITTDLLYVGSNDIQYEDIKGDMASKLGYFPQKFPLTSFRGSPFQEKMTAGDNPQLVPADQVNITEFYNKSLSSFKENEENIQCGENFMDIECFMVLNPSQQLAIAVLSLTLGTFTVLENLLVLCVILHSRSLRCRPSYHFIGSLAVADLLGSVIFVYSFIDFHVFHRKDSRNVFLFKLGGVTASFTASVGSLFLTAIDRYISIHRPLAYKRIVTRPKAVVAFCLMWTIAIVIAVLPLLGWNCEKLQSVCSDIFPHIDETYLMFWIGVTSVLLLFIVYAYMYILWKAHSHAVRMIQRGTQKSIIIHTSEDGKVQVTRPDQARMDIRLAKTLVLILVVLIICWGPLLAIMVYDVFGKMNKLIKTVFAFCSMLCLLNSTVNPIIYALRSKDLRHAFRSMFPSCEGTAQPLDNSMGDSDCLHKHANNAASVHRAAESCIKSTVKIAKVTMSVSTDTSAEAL
Procedure: as §1

SMILES	Selective index (CB1/CB2) [1]	Human CB2 receptor S/R ratio [1]	EC50 [1]	EC50 [2]	Human CB1 receptor S/R ratio [2]	difference in the EC50 levels between the enantiomers to activate the CB1 receptor [2]	CB2 receptor agonist activity (in words) [1]	CB1 receptor agonist activity (in words) [2]	selective index of CB1/CB2 ([1]; CB2 over CB1, from EC50 values)
CC(C)[C@H](NC(=O)c1nn(Cc2ccccc2F)c2ccccc12)C(N)=O [(S)AB-FUBINACA 2-fluorobenzyl isomer, (S)-N-(1-Amino-3-methyl-1-oxobutan-2-yl)-1-(2-fluorobenzyl)-1H-indazole-3-carboxamide]	1.20	3.9	2.44 nM	2.92 nM	0.21	–	–	–	–
NC(=O)[C@H](Cc1ccccc1)NC(=O)c1nn(CC2CCCCC2)c2ccccc12 [(S)-N-(1-Amino-1-oxo-3-phenylpropan-2-yl)-1-(cyclohexylmethyl)-1H-indazole-3-carboxamide]	31.0	0.017	8.09 nM	251 nM	0.0074	134 fold	–	–	–
CCOC(=O)[C@H](NC(=O)c1nn(CCCCCF)c2ccccc12)C(C)C [(R)5F-EMB-PINACA, Ethyl [1-(5-fluoropentyl)-1H-indazole-3-carbonyl]-D-valinate]	21.4	4.1	1.68 nM	35.9 nM	0.14	–	–	–	–
COC(=O)[C@@H](NC(=O)c1cn(Cc2ccc(F)cc2)c2ccccc12)C(C)(C)C [(S)MDMB-FUBICA, Methyl (S)-2-[1-(4-fluorobenzyl)-1H-indole-3-carboxamido]-3,3-dimethylbutanoate]	9.08	0.35	1.07 nM	9.72 nM	<0.0001	–	could activate both of these receptors at nanomolar levels	could activate both of these receptors at nanomolar levels	–
COC(=O)C(NC(=O)c1cn(Cc2ccc(F)cc2)c2ccccc12)C(C)(C)C (stereo not drawn) [MDMB-FUBICA, methyl 2-[1-(4-fluorobenzyl)-1H-indole-3-carboxamido]-3,3-dimethylbutanoate]	–	–	–	–	–	more than 10,000 fold	–	–	–
NC(=O)[C@@H](Cc1ccccc1)NC(=O)c1nn(CC2CCCCC2)c2ccccc12 [(R)-N-(1-Amino-1-oxo-3-phenylpropan-2-yl)-1-(cyclohexylmethyl)-1H-indazole-3-carboxamide]	68.8	0.017	490 nM	33700 nM	0.0074	–	–	–	–
CC(C)[C@@H](NC(=O)c1nn(Cc2ccccc2F)c2ccccc12)C(N)=O [(R)AB-FUBINACA 2-fluorobenzyl isomer, (R)-N-(1-Amino-3-methyl-1-oxobutan-2-yl)-1-(2-fluorobenzyl)-1H-indazole-3-carboxamide]	22.5	3.9	0.627 nM	14.1 nM	0.21	–	–	–	–
CCOC(=O)[C@@H](NC(=O)c1nn(Cc2ccc(F)cc2)c2ccccc12)C(C)C [(S)EMB-FUBINACA, Ethyl [1-(4-fluorobenzyl)-1H-indazole-3-carbonyl]-L-valinate]	0.214	2.5	2.14 nM	0.458 nM	0.015	–	–	–	–
CCOC(=O)[C@H](NC(=O)c1nn(Cc2ccc(F)cc2)c2ccccc12)C(C)C [(R)EMB-FUBINACA, Ethyl [1-(4-fluorobenzyl)-1H-indazole-3-carbonyl]-D-valinate]	35.6	2.5	0.863 nM	30.7 nM	0.015	–	–	–	–
CCOC(=O)[C@@H](NC(=O)c1nn(CCCCCF)c2ccccc12)C(C)C [(S)5F-EMB-PINACA, Ethyl [1-(5-fluoropentyl)-1H-indazole-3-carbonyl]-L-valinate]	0.718	4.1	6.91 nM	4.96 nM	0.14	–	–	–	–
COC(=O)[C@H](NC(=O)c1cn(Cc2ccc(F)cc2)c2ccccc12)C(C)(C)C [(R)MDMB-FUBICA, Methyl (R)-2-[1-(4-fluorobenzyl)-1H-indole-3-carboxamido]-3,3-dimethylbutanoate]	>30,000	0.35	3.1 nM	> 100000 nM	<0.0001	–	function as an agonist of the CB2 receptor; also recorded: functioned only on the CB2 receptor as an agonist	lacks CB1 receptor activity; also recorded: not confirmed; also recorded: no [^35S]GTPγS binding activity	more than 3.2 × 10^4 fold

Source: publication PMC5754384, “Evaluation of carboxamide-type synthetic cannabinoids as CB1/CB2 receptor agonists: difference between the enantiomers” (Forensic Toxicology, 2017)
